In PubChem BioAssay (NCI):
Values joined by “and” are separate entries in the source; they are usually repeats but may differ in a detail not shown here. Identical values can stand only once.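 48-hour exposure; five concentrations; linearly interpolated endpoints. At the GI50, growth is halved. TGI marks complete inhibition of growth.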

Columns and labels:
Experiment in all cases: DTP human tumour cell line panel, 48 h
[1] = tested on: HOP-62 NSCLC
[2] = tested on: LOX IMVI melanoma
[3] = tested on: SF-539 CNS
[4] = tested on: SK-MEL-5 melanoma
[5] = tested on: ACHN renal
[6] = tested on: 786-0 renal
[7] = tested on: CAKI-1 renal
[8] = tested on: OVCAR-5 ovarian
[9] = tested on: SNB-75 CNS
[10] = tested on: NCI-H226 lung

| SMILES | GI50 [1] | TGI [1] | GI50 [2] | GI50 [3] | TGI [3] | GI50 [4] | TGI [4] | GI50 [5] | GI50 [6] | TGI [6] | GI50 [7] | TGI [7] | GI50 [8] | TGI [8] | GI50 [9] | TGI [9] | GI50 [10] | TGI [10] | TGI [2] | TGI [5] |
| --- | --- | --- | --- | --- | --- | --- | --- | --- | --- | --- | --- | --- | --- | --- | --- | --- | --- | --- | --- | --- |
| Oc1ccc2ccccc2c1/C=N\Nc1ccccn1 | 0.416 µM | 17 µM | 0.275 µM | 0.529 µM | > 26.8 µM | 1.57 µM | > 50.1 µM | 0.331 µM | 0.618 µM | 4.58 µM | 0.212 µM | 0.678 µM | 4.25 µM | > 100 µM | 1.03 µM | 10.3 µM | 2.2 µM | > 41.9 µM | – | – |
| CCOC1NC(=O)Oc2ccccc21 (stereo not drawn) | – | > 100 µM | – | – | > 100 µM | – | > 100 µM | – | – | > 100 µM | – | > 100 µM | – | > 100 µM | – | > 100 µM | – | > 100 µM | > 100 µM | > 100 µM |
| C=C1C(=O)O[C@H]2[C@H]1CC/C(COC(=O)CCC(=O)OC/C1=C/CC[C@@]3(C)O[C@H]3[C@H]3OC(=O)C(=C)[C@@H]3CC1)=C\CC[C@@]1(C)O[C@@H]21 | 3.21 µM | 10.6 µM | 1.37 µM | 1.95 µM | 5.58 µM | 2.05 µM | 5.27 µM | 0.753 µM | 1.46 µM | 3.12 µM | – | – | 2.13 µM | 6.03 µM | 15.1 µM | 45.7 µM | 2.46 µM | 11.7 µM | 2.75 µM | 2.03 µM |
| N#Cc1c2ccccc2c2nnc3cc(Cl)c(Cl)cc3n12 | 31.2 µM | > 100 µM | 59.3 µM | 28.5 µM | 61.8 µM | 84.2 µM | > 100 µM | 19.9 µM | > 100 µM | > 100 µM | 77.4 µM | > 100 µM | > 100 µM | > 100 µM | 71.7 µM | > 100 µM | – | – | > 100 µM | 52.8 µM |
| COc1ccc(Cc2ccccc2C(=O)O)c2ccccc12 | – | > 100 µM | – | – | – | – | 32.9 µM | – | – | > 100 µM | – | > 100 µM | – | 59.6 µM | – | > 100 µM | – | > 100 µM | 54.4 µM | > 100 µM |
| O=C(NC(=S)NS(=O)(=O)c1ccc(N2N=C3c4ccccc4CC3C2c2cccs2)cc1)c1ccccc1 (stereo not drawn) | – | – | 15.2 µM | 27.9 µM | 84.6 µM | 16.9 µM | 46.5 µM | – | 27.9 µM | > 100 µM | 26.1 µM | 77.4 µM | 18.7 µM | 71.7 µM | > 100 µM | > 100 µM | – | – | 31.7 µM | – |
| COc1nc2c(nc(N)n2C2OC(CO)C(O)C(O)C2O)c(=O)n1C (stereo not drawn) | – | > 100 µM | – | – | > 100 µM | – | > 100 µM | – | – | > 100 µM | – | > 100 µM | – | – | – | > 100 µM | – | > 100 µM | > 100 µM | > 100 µM |
| COC(=O)/C(C#N)=C1\N=NNN1CCCc1ccccc1 | – | – | – | – | > 100 µM | – | > 100 µM | – | – | > 100 µM | – | > 100 µM | – | – | – | > 100 µM | – | > 100 µM | > 100 µM | > 100 µM |
| Cc1nc2cc(O)c(O)cc2cc1Oc1ccc(NC(=O)Nc2ccc(Cl)c(Cl)c2)cc1 | 8.62 µM | > 32.5 µM | – | 8.86 µM | 22.7 µM | 5.94 µM | 14.2 µM | 3.37 µM | 7.68 µM | 18.6 µM | 4.96 µM | 30 µM | 11.6 µM | 29.3 µM | 7.73 µM | 28.9 µM | 11.8 µM | > 32.5 µM | – | 17.9 µM |
| Cn1c(=O)c(F)c(Nc2ccc(I)cc2F)c2c(=O)n(C[C@@H](O)CO)cnc21 | 0.0545 µM and 0.0151 µM | > 69.7 µM | 0.0469 µM and 0.0198 µM | 3.21 µM and 0.907 µM | 22.8 µM and > 4.07 µM | < 0.0268 µM and 0.0448 µM | 17.9 µM and > 3.46 µM | 2.17 µM and 0.48 µM | 4.59 µM and 1.3 µM | 21.4 µM and > 4.58 µM | 0.649 µM and 0.139 µM | > 90 µM | < 0.01 µM and 0.0058 µM | 35.3 µM and > 1.97 µM | 4.11 µM | 30.8 µM and > 2.29 µM | – | – | 12.5 µM and > 3.38 µM | 40.8 µM and > 6.49 µM |
| COc1ccc(/C=C(/C(=O)N2CCNCC2)c2cc(OC)c(OC)c(OC)c2)cc1O | 5.08 µM | > 100 µM | 5.21 µM | 2.22 µM | 6.51 µM | 4.71 µM | 56.4 µM | 49.5 µM | 33.1 µM | > 100 µM | > 100 µM | > 100 µM | 6.21 µM | > 100 µM | – | – | 5.4 µM | > 100 µM | > 100 µM | > 100 µM |
| O=C(Nc1ccccc1Cl)c1ccc(NC2=C(Cl)C(=O)N(Cc3ccccc3)C2=O)cc1 | 41.2 µM | > 100 µM | 17.9 µM | 45.6 µM | > 100 µM | 32.7 µM | > 100 µM | 37.6 µM | 24.8 µM | 57.3 µM | 43.5 µM | > 100 µM | > 100 µM | > 100 µM | – | – | 32.5 µM | 92.3 µM | 32.6 µM | > 100 µM |
| N#C/C(=C/N1CCN(C(=O)c2ccco2)C1=S)C(N)=O | 25.6 µM | 66.9 µM | 2.5 µM | – | – | 16.5 µM | 38.9 µM | 11.8 µM | 18 µM | 46.9 µM | 11.8 µM | 34.4 µM | – | – | > 100 µM | > 100 µM | – | – | 7.69 µM | 38.8 µM |
| O=C(OCCOCCOC(=O)c1c[nH]cc1-c1ccccc1)c1c[nH]cc1-c1ccccc1 | – | 31.7 µM | – | – | 32.5 µM | – | 30.5 µM | – | – | 73.1 µM | – | 83.1 µM | – | 62.2 µM | – | 36.7 µM | – | 48.9 µM | 30.2 µM | – |
| Cc1ccc(S(=O)(=O)N2CCCCC2CCO)cc1 (stereo not drawn) | – | > 100 µM | – | – | > 100 µM | – | > 100 µM | – | – | > 100 µM | – | > 100 µM | – | > 100 µM | – | > 100 µM | – | > 100 µM | – | > 100 µM |
| O=c1c2ccccc2nc(-c2ccc(Cl)cc2)n1O | – | 91.2 µM | – | – | 64.7 µM | – | > 100 µM | – | – | 94.4 µM | – | > 100 µM | – | > 100 µM | – | > 100 µM | – | > 100 µM | – | 65 µM |
| CCCNc1nc(-c2ccc(OC)cc2)nc2ccccc12 | 14.9 µM | 31.2 µM | 18.4 µM | – | – | 12.5 µM | 27.7 µM | 15.8 µM | 13.7 µM | 33 µM | 13.3 µM | 27.9 µM | 16.4 µM | 43 µM | – | – | 16.1 µM | 41.9 µM | 37.5 µM | 33.3 µM |
